Source: publication PMC9014415, “Repositioning of a Diaminothiazole Series Confirmed to Target the Cyclin-Dependent Kinase CRK12 for Use in the Treatment of African Animal Trypanosomiasis” (Journal of Medicinal Chemistry, 2022)
Values after ≈ are worked out from the molar mass of the structure shown.

Experiments:
[1] = Solubility of compound 1 in PBS pH 7.4 (filtration, UHPLC); assay type: physicochemical; settings: phosphate buffered saline; aqueous; PBS pH 7.4, 24 h mixing, UHPLC (method used for compound 1)
Experimental: software. All experiments were conducted with technical duplicates and at least three biological […]
1.4 Cytotoxicity assays – Rat skeletal myoblasts (L6)
The cytotoxicity of test compounds was evaluated using a rat skeletal myoblast (L6) cell line, as previously described3, but with minor modifications. Cells were grown in RPMI media supplemented with 10% (v/v) fetal calf serum. L6 cells at a seeding density of 2 x 10^4 cells/mL were incubated in microtiter plates overnight at 37 °C and 5 % CO2 until adherent. The following day, test compounds were added to the plates (3-fold serial dilutions), prior to incubation for 69 h. […] The plates were read using a SpectraMax (Gemini XS) fluorescence reader at an excitation wavelength of 536 nm and an emission wavelength of 588 nm. EC50 values were determined using SOFTmax Pro 5.2 analysis software. […]
The aqueous solubility of test compounds was measured using laser nephelometry. […] Triplicate aliquots were transferred to a flat-bottomed polystyrene plate which was immediately read on a NEPHELOstar nephelometer (BMG Lab Technologies). […]
Solubility of compound 1 was measured by a different method. […]
solution was then mixed for 24 h (rotary mixing, 900 rpm, 25°C) excluding light. […] The resulting filtrate was analysed for dissolved compound 1 using a truncated UHPLC methodology. […]

T. congolense = experiment: Microcalorimetry of parasite growth; assay type: cell-based, Trypanosoma congolense
Experimental: These observations offer confidence that rats can be used as a model animal in the drug development path going forward prior to studies in cattle. Exposure following IM injection in rats was sufficient to warrant progression to cattle efficacy studies, although the short half-life raised concerns that the required time above the EC99 blood concentration may not be sufficient for cure following a single IM dose at 10 mg/kg.

Compound	solubility at 24 h [1] [µM]	Effect on parasites, microcalorimetry (T. congolense; 10 ng/mL)	Effect on parasites, microcalorimetry (T. congolense; 30 ng/mL)	Effect on parasites, microcalorimetry (T. congolense; 100 ng/mL)
CC(C)CS(=O)(=O)N[C@H]1CC[C@H](Nc2nc(N)c(C(=O)c3c(F)cccc3F)s2)CC1 [Compound 1, N-((trans)-4-((4-Amino-5-(2,6-difluorobenzoyl)thiazol-2-yl)amino)cyclohexyl)-2-methylpropane-1-sulfonamide]	105 (≈ 49.6 µg/mL)	–	–	–
CC(C)CS(=O)(=O)N[C@H]1CC[C@H](Nc2nc(N)c(C(=O)c3c(F)cc(CN(C)C)cc3F)s2)CC1 [Compound 2, N-(trans)-[4-[[4-Amino-5-[4-(dimethylaminomethyl)-2,6-difluoro-benzoyl]thiazol-2-yl]amino]cyclohexyl]-2-methyl-propane-1-sulfonamide]	–	slowed parasite growth	rapid kill	rapid kill
